Experiment: mn = molality of the nth substance listed, in mol/kg
Conditions: 101 kPa, Liquid

OC[C@H]1O[C@@](CO)(O[C@H]2O[C@H](CO)[C@@H](O)[C@H](O)[C@H]2O)[C@@H](O)[C@@H]1O [D-sucrose] + O
Conditions | mass density, 288.15 K [kg/m3] | mass density, 298.15 K [kg/m3] | mass density, 308.15 K [kg/m3] | mass density, 318.15 K [kg/m3] | viscosity, 288.15 K [mPa·s] | viscosity, 298.15 K [mPa·s] | viscosity, 308.15 K [mPa·s] | viscosity, 318.15 K [mPa·s]
m1 = 0.0482 | 1005.4 | 1003.28 | 1000.26 | 996.41 | – | – | – | –
m1 = 0.05054 | – | – | – | – | 1.198 | 0.934 | 0.751 | 0.621
m1 = 0.06821 | 1007.96 | 1005.82 | 1002.79 | 998.92 | – | – | – | –
m1 = 0.06969 | – | – | – | – | 1.221 | 0.951 | 0.766 | 0.632
m1 = 0.08888 | 1010.58 | 1008.42 | 1005.37 | 1001.49 | – | – | – | –
m1 = 0.09107 | – | – | – | – | 1.242 | 0.969 | 0.78 | 0.645
m1 = 0.1095 | 1013.17 | 1010.99 | 1007.92 | 1004.02 | – | – | – | –
m1 = 0.1098 | – | – | – | – | 1.264 | 0.984 | 0.793 | 0.654
m1 = 0.1286 | 1015.55 | 1013.35 | 1010.27 | 1006.35 | – | – | – | –
m1 = 0.1293 | – | – | – | – | 1.286 | 1.001 | 0.805 | 0.666
m1 = 0.1495 | 1018.13 | 1015.9 | 1012.8 | 1008.87 | – | – | – | –
m1 = 0.1497 | – | – | – | – | 1.31 | 1.019 | 0.819 | 0.675

O=C[C@H](O)[C@@H](O)[C@H](O)CO [D-xylose] + O
Conditions | mass density, 288.15 K [kg/m3] | mass density, 298.15 K [kg/m3] | mass density, 308.15 K [kg/m3] | mass density, 318.15 K [kg/m3] | viscosity, 288.15 K [mPa·s] | viscosity, 298.15 K [mPa·s] | viscosity, 308.15 K [mPa·s] | viscosity, 318.15 K [mPa·s]
m1 = 0.0491 | 1001.82 | 999.72 | 996.71 | 992.87 | – | – | – | –
m1 = 0.04924 | – | – | – | – | 1.161 | 0.904 | 0.73 | 0.605
m1 = 0.06784 | – | – | – | – | 1.167 | 0.911 | 0.735 | 0.609
m1 = 0.07084 | 1002.99 | 1000.89 | 997.87 | 994.02 | – | – | – | –
m1 = 0.08985 | 1004.02 | 1001.9 | 998.88 | 995.03 | – | – | – | –
m1 = 0.09005 | – | – | – | – | 1.176 | 0.917 | 0.74 | 0.612
m1 = 0.1038 | – | – | – | – | 1.183 | 0.921 | 0.743 | 0.615
m1 = 0.1144 | 1005.32 | 1003.21 | 1000.16 | 996.31 | – | – | – | –
m1 = 0.1285 | – | – | – | – | 1.19 | 0.929 | 0.749 | 0.62
m1 = 0.1303 | 1006.16 | 1004.04 | 1000.99 | 997.13 | – | – | – | –
m1 = 0.1485 | 1007.12 | 1005 | 1001.94 | 998.07 | – | – | – | –
m1 = 0.151 | – | – | – | – | 1.201 | 0.936 | 0.754 | 0.624

O=C(CO)[C@@H](O)[C@H](O)[C@@H](O)CO [L-sorbose] + O
Conditions | mass density [kg/m3] | viscosity [mPa·s]
288.15 K, m1 = 0.04909 | – | 1.162
288.15 K, m1 = 0.05105 | 1002.68 | –
288.15 K, m1 = 0.06584 | 1003.7 | –
288.15 K, m1 = 0.0704 | – | 1.173
288.15 K, m1 = 0.08456 | – | 1.182
288.15 K, m1 = 0.08815 | 1005.22 | –
288.15 K, m1 = 0.1091 | – | 1.195
288.15 K, m1 = 0.1289 | – | 1.206
288.15 K, m1 = 0.1505 | 1009.38 | –
288.15 K, m1 = 0.1507 | – | 1.216
298.15 K, m1 = 0.04909 | – | 0.907
298.15 K, m1 = 0.05105 | 1000.57 | –
298.15 K, m1 = 0.06584 | 1001.57 | –
298.15 K, m1 = 0.0704 | – | 0.916
298.15 K, m1 = 0.08456 | – | 0.923
298.15 K, m1 = 0.08815 | 1003.06 | –
298.15 K, m1 = 0.1073 | 1004.33 | –
298.15 K, m1 = 0.1091 | – | 0.931
298.15 K, m1 = 0.1507 | – | 0.947
308.15 K, m1 = 0.04909 | – | 0.733
308.15 K, m1 = 0.06584 | 998.56 | –
308.15 K, m1 = 0.0704 | – | 0.738
308.15 K, m1 = 0.08815 | 1000.04 | –
308.15 K, m1 = 0.1073 | 1001.3 | –
308.15 K, m1 = 0.1091 | – | 0.75
308.15 K, m1 = 0.1289 | – | 0.756
308.15 K, m1 = 0.1317 | 1002.89 | –
308.15 K, m1 = 0.1505 | 1004.1 | –
308.15 K, m1 = 0.1507 | – | 0.762
318.15 K, m1 = 0.04909 | – | 0.606
318.15 K, m1 = 0.05105 | 993.72 | –
318.15 K, m1 = 0.06584 | 994.7 | –
318.15 K, m1 = 0.0704 | – | 0.611
318.15 K, m1 = 0.08456 | – | 0.615
318.15 K, m1 = 0.08815 | 996.17 | –
318.15 K, m1 = 0.1073 | 997.41 | –
318.15 K, m1 = 0.1091 | – | 0.62
318.15 K, m1 = 0.1289 | – | 0.624
318.15 K, m1 = 0.1317 | 998.98 | –
318.15 K, m1 = 0.1505 | 1000.18 | –
318.15 K, m1 = 0.1507 | – | 0.629

— the NIST ThermoML archive (doi:10.1021/je500886a)
